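Growth conditions: 96-well plates. Treatment: test compound, 48 hours, 5 concentrations. Analysis: linear interpolation between bracketing concentrations; unreached endpoints set to highest concentration. TGI denotes the concentration required for complete inhibition of growth.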 Where a SMILES comes first, the peptide text is derived from it. [ ]: non-standard residue; d: D form. The star is where a group is joined. X28 = COC1=CC(=O)N(C(=O)[C@@H](O*)C(C)C)[C@H]1Cc1ccccc1; NMeV = CN[C@H](C(=O)O)C(C)C; Hexanoyl = CCCCCC(=O)*
What was measured:
Test in all cases: NCI-60 cell line screen, 48 h
NCI-H460 lung = tested on: NCI-H460 lung
HOP-92 NSCLC = tested on: HOP-92 NSCLC
NCI-H23 lung = tested on: NCI-H23 lung
HT29 colon = tested on: HT29 colon
OVCAR-5 ovarian = tested on: OVCAR-5 ovarian
SW-620 colon = tested on: SW-620 colon
PC-3 prostate = tested on: PC-3 prostate
MOLT-4 leukemia = tested on: MOLT-4 leukemia
MCF7 breast = tested on: MCF7 breast
SN12C renal = tested on: SN12C renal
UACC-257 melanoma = tested on: UACC-257 melanoma
MALME-3M melanoma = tested on: MALME-3M melanoma
SF-295 CNS = tested on: SF-295 CNS
UO-31 renal = tested on: UO-31 renal
BT-549 breast = tested on: BT-549 breast
EKVX NSCLC = tested on: EKVX NSCLC
NCI-H226 lung = tested on: NCI-H226 lung
COLO 205 colon = tested on: COLO 205 colon
CAKI-1 renal = tested on: CAKI-1 renal
MDA-MB-231 breast = tested on: MDA-MB-231 breast
MDA-N = tested on: MDA-N
786-0 renal = tested on: 786-0 renal
OVCAR-8 ovarian = tested on: OVCAR-8 ovarian
HCT-116 colon = tested on: HCT-116 colon
CCRF-CEM leukemia = tested on: CCRF-CEM leukemia
SK-MEL-28 melanoma = tested on: SK-MEL-28 melanoma
HL-60(TB) leukemia = tested on: HL-60(TB) leukemia
HCT-15 colon = tested on: HCT-15 colon
HOP-62 NSCLC = tested on: HOP-62 NSCLC
KM12 colon = tested on: KM12 colon
DU-145 prostate = tested on: DU-145 prostate
ACHN renal = tested on: ACHN renal
UACC-62 melanoma = tested on: UACC-62 melanoma
HCC-2998 colon = tested on: HCC-2998 colon
SF-268 CNS = tested on: SF-268 CNS
TK-10 renal = tested on: TK-10 renal
MDA-MB-435 = tested on: MDA-MB-435
HS 578T breast = tested on: HS 578T breast
A498 renal = tested on: A498 renal
K-562 leukemia = tested on: K-562 leukemia
NCI-H522 lung = tested on: NCI-H522 lung
OVCAR-3 ovarian = tested on: OVCAR-3 ovarian
T-47D breast = tested on: T-47D breast
RPMI-8226 leukemia = tested on: RPMI-8226 leukemia
LOX IMVI melanoma = tested on: LOX IMVI melanoma
IGROV1 ovarian = tested on: IGROV1 ovarian
RXF 393 renal = tested on: RXF 393 renal
SK-MEL-2 melanoma = tested on: SK-MEL-2 melanoma
SK-OV-3 ovarian = tested on: SK-OV-3 ovarian
SF-539 CNS = tested on: SF-539 CNS
SNB-75 CNS = tested on: SNB-75 CNS
NCI/ADR-RES ovarian = tested on: NCI/ADR-RES ovarian
U251 CNS = tested on: U251 CNS
OVCAR-4 ovarian = tested on: OVCAR-4 ovarian
SNB-19 CNS = tested on: SNB-19 CNS
SR leukemia = tested on: SR leukemia
M14 melanoma = tested on: M14 melanoma
A549 NSCLC = tested on: A549 NSCLC
SK-MEL-5 melanoma = tested on: SK-MEL-5 melanoma

## CCCCCC(=O)N[C@H](C(=O)N[C@H](C(=O)N(C)[C@H](C(=O)N1CCC[C@H]1C(=O)N1CCC[C@H]1C(=O)O[C@H](C(=O)N1C(=O)C=C(OC)[C@@H]1Cc1ccccc1)C(C)C)C(C)C)C(C)C)C(C)C (Hexanoyl-VV[NMeV]PP-X28)
NCI-H460 lung
  TGI: > 100 µM
HOP-92 NSCLC
  TGI: > 100 µM
NCI-H23 lung
  TGI: > 100 µM
HT29 colon
  TGI: > 100 µM
OVCAR-5 ovarian
  TGI: > 100 µM
SW-620 colon
  TGI: > 100 µM
PC-3 prostate
  TGI: 85.5 µM
MOLT-4 leukemia
  TGI: > 100 µM
MCF7 breast
  TGI: > 100 µM
SN12C renal
  TGI: > 100 µM
UACC-257 melanoma
  TGI: > 100 µM
MALME-3M melanoma
  TGI: > 100 µM
SF-295 CNS
  TGI: > 100 µM
UO-31 renal
  TGI: > 100 µM
BT-549 breast
  TGI: > 100 µM
EKVX NSCLC
  TGI: > 100 µM
NCI-H226 lung
  TGI: > 100 µM
COLO 205 colon
  TGI: > 100 µM
CAKI-1 renal
  TGI: > 100 µM
MDA-MB-231 breast
  TGI: > 100 µM
MDA-N
  TGI: > 100 µM
786-0 renal
  TGI: > 100 µM
OVCAR-8 ovarian
  TGI: > 100 µM
HCT-116 colon
  TGI: > 100 µM
CCRF-CEM leukemia
  TGI: > 100 µM
SK-MEL-28 melanoma
  TGI: > 100 µM
HL-60(TB) leukemia
  TGI: > 100 µM
HCT-15 colon
  TGI: > 100 µM
HOP-62 NSCLC
  TGI: > 100 µM
KM12 colon
  TGI: > 100 µM
DU-145 prostate
  TGI: > 100 µM
ACHN renal
  TGI: > 100 µM
UACC-62 melanoma
  TGI: > 100 µM
HCC-2998 colon
  TGI: > 100 µM
SF-268 CNS
  TGI: > 100 µM
TK-10 renal
  TGI: > 100 µM
MDA-MB-435
  TGI: > 100 µM
HS 578T breast
  TGI: > 100 µM
A498 renal
  TGI: > 100 µM
K-562 leukemia
  TGI: > 100 µM
NCI-H522 lung
  TGI: > 100 µM
OVCAR-3 ovarian
  TGI: > 100 µM
T-47D breast
  TGI: > 100 µM
RPMI-8226 leukemia
  TGI: > 100 µM
LOX IMVI melanoma
  TGI: > 100 µM
IGROV1 ovarian
  TGI: > 100 µM
RXF 393 renal
  TGI: 62.7 µM
SK-MEL-2 melanoma
  TGI: > 100 µM
SK-OV-3 ovarian
  TGI: > 100 µM
SF-539 CNS
  TGI: > 100 µM
SNB-75 CNS
  TGI: 38.5 µM
NCI/ADR-RES ovarian
  TGI: > 100 µM
U251 CNS
  TGI: > 100 µM
OVCAR-4 ovarian
  TGI: > 100 µM

## CCOC(=O)N(Cc1cccs1)c1cc(OC)c(OC)c(OC)c1
NCI-H460 lung
  TGI: > 100 µM
NCI-H23 lung
  TGI: > 100 µM
SNB-19 CNS
  TGI: > 100 µM
SR leukemia
  TGI: 65.5 µM
HT29 colon
  TGI: > 100 µM
OVCAR-5 ovarian
  TGI: > 100 µM
SW-620 colon
  TGI: > 100 µM
PC-3 prostate
  TGI: 98.9 µM
MOLT-4 leukemia
  TGI: 36 µM
MCF7 breast
  TGI: > 100 µM
SN12C renal
  TGI: > 100 µM
UACC-257 melanoma
  TGI: > 100 µM
MALME-3M melanoma
  TGI: > 100 µM
SF-295 CNS
  TGI: > 100 µM
UO-31 renal
  TGI: > 100 µM
BT-549 breast
  TGI: > 100 µM
EKVX NSCLC
  TGI: > 100 µM
M14 melanoma
  TGI: > 100 µM
NCI-H226 lung
  TGI: > 100 µM
COLO 205 colon
  TGI: 32.9 µM
CAKI-1 renal
  TGI: > 100 µM
MDA-MB-231 breast
  TGI: > 100 µM
MDA-N
  TGI: 90.8 µM
786-0 renal
  TGI: > 100 µM
OVCAR-8 ovarian
  TGI: > 100 µM
HCT-116 colon
  TGI: > 100 µM
CCRF-CEM leukemia
  TGI: 69.3 µM
SK-MEL-28 melanoma
  TGI: > 100 µM
HL-60(TB) leukemia
  TGI: > 100 µM
HCT-15 colon
  TGI: > 100 µM
HOP-62 NSCLC
  TGI: > 100 µM
KM12 colon
  TGI: > 100 µM
DU-145 prostate
  TGI: > 100 µM
ACHN renal
  TGI: > 100 µM
UACC-62 melanoma
  TGI: > 100 µM
HCC-2998 colon
  TGI: > 100 µM
SF-268 CNS
  TGI: > 100 µM
TK-10 renal
  TGI: > 100 µM
MDA-MB-435
  TGI: 63.2 µM
HS 578T breast
  TGI: > 100 µM
A498 renal
  TGI: > 100 µM
K-562 leukemia
  TGI: 65.7 µM
NCI-H522 lung
  TGI: > 100 µM
OVCAR-3 ovarian
  TGI: > 100 µM
T-47D breast
  TGI: > 100 µM
RPMI-8226 leukemia
  TGI: 51.9 µM
LOX IMVI melanoma
  TGI: > 100 µM
IGROV1 ovarian
  TGI: > 100 µM
RXF 393 renal
  TGI: > 100 µM
SK-MEL-2 melanoma
  TGI: > 100 µM
A549 NSCLC
  TGI: > 100 µM
SK-MEL-5 melanoma
  TGI: > 100 µM
SNB-75 CNS
  TGI: > 100 µM
NCI/ADR-RES ovarian
  TGI: 29.2 µM
U251 CNS
  TGI: > 100 µM
OVCAR-4 ovarian
  TGI: > 100 µM

## O=C(/C=C/c1ccccc1)CCN1CCN(CCC(=O)/C=C/c2ccccc2)CC1
NCI-H460 lung
  TGI: 31 µM
HOP-92 NSCLC
  TGI: 35.9 µM
NCI-H23 lung
  TGI: 31.2 µM
SNB-19 CNS
  TGI: 32.6 µM
HT29 colon
  TGI: 30.4 µM
OVCAR-5 ovarian
  TGI: 30.5 µM
SW-620 colon
  TGI: 17.4 µM
PC-3 prostate
  TGI: 34 µM
MOLT-4 leukemia
  TGI: 85.5 µM
MCF7 breast
  TGI: 20.7 µM
SN12C renal
  TGI: 21.7 µM
UACC-257 melanoma
  TGI: 24 µM
MALME-3M melanoma
  TGI: 30.9 µM
SF-295 CNS
  TGI: 31.2 µM
UO-31 renal
  TGI: 30.8 µM
BT-549 breast
  TGI: 28.4 µM
EKVX NSCLC
  TGI: 35.2 µM
M14 melanoma
  TGI: 23.9 µM
NCI-H226 lung
  TGI: 64.4 µM
COLO 205 colon
  TGI: 31.1 µM
CAKI-1 renal
  TGI: 31.9 µM
MDA-MB-231 breast
  TGI: 17 µM
MDA-N
  TGI: 6.79 µM
786-0 renal
  TGI: 18.9 µM
OVCAR-8 ovarian
  TGI: 31.4 µM
HCT-116 colon
  TGI: 5.28 µM
CCRF-CEM leukemia
  TGI: 28.1 µM
SK-MEL-28 melanoma
  TGI: 27.8 µM
HL-60(TB) leukemia
  TGI: > 100 µM
HCT-15 colon
  TGI: 23 µM
HOP-62 NSCLC
  TGI: 43.9 µM
KM12 colon
  TGI: 17 µM
DU-145 prostate
  TGI: 31.5 µM
ACHN renal
  TGI: 29.5 µM
UACC-62 melanoma
  TGI: 30.2 µM
HCC-2998 colon
  TGI: 30.4 µM
SF-268 CNS
  TGI: 29.2 µM
TK-10 renal
  TGI: 30 µM
MDA-MB-435
  TGI: 14.8 µM
HS 578T breast
  TGI: 37.2 µM
A498 renal
  TGI: 33.3 µM
K-562 leukemia
  TGI: > 100 µM
NCI-H522 lung
  TGI: 30 µM
OVCAR-3 ovarian
  TGI: 30.7 µM
T-47D breast
  TGI: 31.2 µM
RPMI-8226 leukemia
  TGI: > 100 µM
LOX IMVI melanoma
  TGI: 5.88 µM
IGROV1 ovarian
  TGI: 33.1 µM
RXF 393 renal
  TGI: 28.8 µM
SK-MEL-2 melanoma
  TGI: 37.5 µM
A549 NSCLC
  TGI: > 100 µM
SK-OV-3 ovarian
  TGI: > 100 µM
SK-MEL-5 melanoma
  TGI: 28.7 µM
SF-539 CNS
  TGI: 28.8 µM
SNB-75 CNS
  TGI: 29.7 µM
NCI/ADR-RES ovarian
  TGI: 60.7 µM
U251 CNS
  TGI: 30.3 µM
OVCAR-4 ovarian
  TGI: 39.3 µM

Source: PubChem BioAssay (NCI)
